By hepatocyte CLint is commonly meant the capacity of the preparation to metabolise the compound, expressed as a volume cleared per time. Read a high hepatocyte CLint as faster metabolism. A word on the solubility: it is how much of the substance goes into solution per volume. A higher solubility goes with a readily soluble substance. In general, EC50 refers to the concentration that produces a half-maximal response.

Converted amounts (≈) assume the structure as drawn. Bounds are passed on as bounds.

Data set [1] is described as follows: Rat Hepatocyte Stability (Test E). The conditions noted are these: rat, hepatocytes, geometric mean if run multiple times. The format is in vitro ADME. The essentials:
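Intrinsic clearance in rat hepatocytes, expressed as μl/min/10^6 cells, following the literature integrated DMPK panel method. Repeat determinations combined as geometric mean.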

A further data set in a line: Solubility (Test F). The format is physicochemical. As to conditions: arithmetic mean if run multiple times. Here is the method:
The assay was conducted according to the Solubility Assay described in pages 164-167 of Wernevik, J. et al., “A Fully Integrated Assay Panel for Early Drug Metabolism and Pharmacokinetics Profiling”, Assay and Drug Development Technologies, 2020, 18(4), 157-179. Data are reported in Table 36 as solubility ([…]. Where the assay was run multiple times for the same compound, the arithmetic mean is reported.

Data set [2] deals with T1, human RXFP1 (Homo sapiens, UniProt Q9HBX9).
T1 sequence (Q9HBX9 1-757): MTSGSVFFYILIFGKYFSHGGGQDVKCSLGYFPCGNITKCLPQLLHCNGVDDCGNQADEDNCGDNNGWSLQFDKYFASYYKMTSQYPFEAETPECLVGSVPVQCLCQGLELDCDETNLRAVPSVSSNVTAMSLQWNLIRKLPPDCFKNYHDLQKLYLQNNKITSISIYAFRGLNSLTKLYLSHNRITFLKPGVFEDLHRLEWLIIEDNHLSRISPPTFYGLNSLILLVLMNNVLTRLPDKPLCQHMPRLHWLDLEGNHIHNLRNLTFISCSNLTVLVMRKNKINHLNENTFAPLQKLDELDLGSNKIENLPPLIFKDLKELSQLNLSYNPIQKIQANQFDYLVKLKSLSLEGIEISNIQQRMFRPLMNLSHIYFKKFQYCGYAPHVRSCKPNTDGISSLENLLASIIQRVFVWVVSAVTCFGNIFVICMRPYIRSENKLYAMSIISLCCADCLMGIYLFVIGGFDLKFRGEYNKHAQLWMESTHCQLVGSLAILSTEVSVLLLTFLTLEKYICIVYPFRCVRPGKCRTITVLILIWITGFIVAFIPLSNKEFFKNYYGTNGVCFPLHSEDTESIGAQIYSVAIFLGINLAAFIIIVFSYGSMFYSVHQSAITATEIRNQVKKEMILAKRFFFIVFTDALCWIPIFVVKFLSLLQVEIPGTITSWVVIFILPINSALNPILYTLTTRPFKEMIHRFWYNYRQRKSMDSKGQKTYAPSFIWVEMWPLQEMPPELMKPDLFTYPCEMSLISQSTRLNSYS
Briefly: Human RXFP1 cGMP Production Assay (Test G). The data set is classed as cell-based. Set-up: expressed in transfected cells. The conditions noted are these: HEK293s cells stably transfected with human RXFP1; Green GENIe cGMP biosensor, area under curve 0 to 90 min. The text has this: Human RXFP1 cGMP Production Assay (Test G)
To profile compounds for RXFP1 agonist activity with respect to cGMP production, the Green GENIe cGMP Assay (Montana Molecular; catalogue number D800G) was employed. The assay is based on an nmNeonGreen fusion protein fluorescent biosensor delivered to mammalian cells in a BacMam vector. Fluorescence is reduced when cGMP is bound to the biosensor.
Cells: HEK293s cells stably transfected with human RXFP1 in pIRESneo3 was employed.
Day 1 • 1. Cells were splitted one day ahead of transduction and seeded to 63 000 cells/cm2 in DMEM medium with 10% FBS without antibiotics in a tissue culture flask.
Day 2 • 2. […] A viral transduction mastermix was prepared by mixing reagents in the following proportions for a single well: • 6 μL GENIe BacMAM vector • 0.2 μL 500 mM sodium butyrate • 13.8 μL DMEM medium with 10% FBS • 20 μL total volume • 5. Cells and transduction mastermix were mixed in proportions 30 μL cells and 20 μL mastermix for a single well. • 6. […] Plate was incubated in the dark at 37° C., 5% CO2 for 24 h.
Day 3 • 8. Medium was removed from plates using a Bluewasher (BluCatBio). • 9. 20 μL assay buffer was added with a Multidrop Combi (ThermoFisher). • 10. Plate was incubated in the dark at room temperature for 30 min prior to assaying. • 11. Plates were assayed using a FLIPR Tetra (Molecular Devices): 10 μL compound diluted with assay buffer was added to each well by the FLIPR Tetra and measuring green fluorescence over time for up to 3 h.
Data was processed using Screener software (Genedata A G). After subtraction of background fluorescence (before addition of compounds), area under curve values from 0 to 90 min after compound addition was used for calculation of responses.

The target in data set [3] is T1, human RXFP1. Briefly: RXFP1 Hu cAMP (Test A). The format is cell-based. Further details: expressed in transfected cells; host or cells: Jump-In T-REx CHO-K1 cells (ThermoFisher), induced with 10 ng/ml doxycycline for 24 h. As to conditions: RXFP1 Hu cAMP; for EC50: read-out: Test A EC50. The method in brief:
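Cells: CHO-K1 stably carrying human RXFP1, expressed after 24 h 10 ng/ml doxycycline; 0.5 mM IBMX final, HTRF detection after 2 h at room temperature.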

`COc1cc(F)c(-c2ccc(C(=O)O)cc2)cc1C(=O)N[C@H]1[C@@H](C(=O)Nc2cccc(S(=O)(=O)C(F)(F)F)c2)[C@@H]2C=C[C@H]1C2` (single isomer, unassigned) [Example 552]: in data set [1], the hepatocyte CLint is 16 µL/min/1e6 cells. Besides, the solubility in the data set “Solubility (Test F)” was more than 1000 µM. In addition, the response on human RXFP1 [2] was half-maximal at 300 nM (EC50). Besides, at human RXFP1 [3], the “Test A Sinf” value was 98% and the EC50 came to 140 nM.

In data set [1], `COc1cc(F)c(O[C@H]2CC[C@@](C)(C(=O)O)CC2)cc1C(=O)N[C@@H]1[C@H]2CC[C@H](C2)[C@@H]1C(=O)Nc1cccc(S(=O)(=O)C(F)(F)F)c1` [Example 208, (1S,4s)-4-(2-Fluoro-4-methoxy-5-(((1S,2R,3S,4R)-3-((3-((trifluoromethyl)sulfonyl)phenyl)carbamoyl)bicyclo[2.2.1]heptan-2-yl)carbamoyl)phenoxy)-1-methylcyclohexane-1-carboxylic acid] displayed a hepatocyte CLint of 35 µL/min/1e6 cells. The same molecule returned a solubility in the data set “Solubility (Test F)” of 130 µM (≈ 87.2 µg/mL). The molecule also came in with an EC50 on human RXFP1 [2] of 9.3 nM. Further, at human RXFP1 [3], the “Test A Sinf” value was determined as 108% and the EC50 is less than 2 nM.

Consider `COc1cc(F)c(O[C@H]2CC[C@@](C)(C(=O)O)CC2)cc1C(=O)N[C@@H]1[C@H]2CC[C@H](C2)[C@@H]1C(=O)Nc1ccc(F)c(S(F)(F)(F)(F)F)c1` [Example 353], for which the hepatocyte CLint in data set [1] was found to be 23 µL/min/1e6 cells. Moreover, the solubility in “Solubility (Test F)” is 45 µM (≈ 30.7 µg/mL). At human RXFP1 [2], this molecule registered an EC50 of 3.7 nM. Besides, at human RXFP1 [3], the “Test A Sinf” value came out at 114% and the EC50 is 0.41 nM.

Take `COc1cc(F)c(O[C@H]2CC[C@@H](C(=O)O)CC2)cc1C(=O)N[C@@H]1[C@H]2CC[C@H](C2)[C@@H]1C(=O)Nc1ccc(F)c(S(F)(F)(F)(F)F)c1` [Example 433]: the hepatocyte CLint in data set [1] was found to be 17 µL/min/1e6 cells. This molecule registered a solubility in “Solubility (Test F)” of 240 µM (≈ 160 µg/mL). Also, the 50% effective concentration (EC50) at human RXFP1 [2] is 19 nM; on human RXFP1 [3], 5.3 nM. On human RXFP1 [3], the “Test A Sinf” value is 109%.

The record behind these values is US11667602B2, “Compounds and their use” (AstraZeneca AB, priority 2020, dated 2023).
